According to ChEMBL document CHEMBL1146985, “Investigation of the mechanism of action of 3-(4-bromophenyl)-5-acyloxymethyl-2,5-dihydrofuran-2-one against Candida albicans by flow cytometry” (Bioorg Med Chem Lett, 2006):
Activity calls are given as the source filed them. No cut-off for these calls is given here.

Experiments:
Candida albicans [1] = assay: Antifungal activity against Candida albicans ATCC 90028 at 10 ug/ml; assay type: functional, organism-based
Candida albicans [2] = assay: Antifungal activity against Candida albicans ATCC 90028 at 100 ug/ml; assay type: functional, organism-based

Structure (SMILES)	Activity (Candida albicans [1])	Activity (Candida albicans [2])
CC(=O)OCC1C=C(c2ccc(Br)cc2)C(=O)O1 (configuration not stated)	Active	–
O=C1OC(CO)C=C1c1ccc(Br)cc1 (configuration not stated)	–	Active
